Measurements: article PMC2374293, “The equilibrium and kinetic drug binding properties of the mouse P-gp1a and P-gp1b P-glycoproteins are similar” (British Journal of Cancer, 1999)

What was measured:
P-gp [1] = assay: Sensitivity of [3H]vinblastine binding to DMSO; parameters: species or system mouse
Excerpt: (§1) The two murine proteins share 84% amino acid identity, although the linker region which contains several sites for phosphorylation by protein kinase C (PKC) is the least conserved region between the two isoforms (Devault and Gros, 1990). […] P-gp1a is expressed at high levels in the intestine, liver and testis, and also in the lung and brain where it is thought to contribute to the blood-brain barrier (Schinkel et al, 1994). In contrast, P-gp1b is expressed in tissues associated with steroid biosynthesis and distribution, such as the adrenal gland and ovary, and is induced specifically in the uterus during pregnancy (Arceci et al, 1988; Trezise et al, 1992). The steroid hormone progesterone increases during pregnancy, and the mdr1b gene, but not the mdr1a gene, is regulated by a progesterone response element in its promoter (Piekarz et al, 1993). Direct evidence that the P-gp1b isoform can transport steroids comes from the observation that disruption of the mdr1b gene in mouse adrenal cells is associated with decreased adrenocorticotropic hormone-stimulated steroid secre- tion (Altuvia et al, 1993). […] More specifically, progesterone inhibits vinblastine binding and azidopine photolabelling of both of the mouse P-gp isoforms in vitro (Yang et al, 1990), showing that both isoforms are capable of interacting with steroids. […]

P-gp [2] = assay: Binding of [3H]progesterone to P-gp; parameters: species or system mouse; conditions: data not shown
Excerpt: as §1

P-gp1a [3] = biological target: T1, P-gp1a (Mus musculus, UniProt P21447); assay: Equilibrium (saturation) binding of [3H]vinblastine to LR73-1a plasma membranes, rapid filtration; conditions: LR73-1a membranes, mean s.e.m.
T1 construct: expressed in transfected cells; host or cells: Chinese hamster ovary LR73 cells (LR73-1a), plasma membrane fraction
Excerpt: as §1

P-gp1b [4] = biological target: T2, P-gp1b (Mus musculus, UniProt P06795); assay: Equilibrium (saturation) binding of [3H]vinblastine to LR73-1b plasma membranes, rapid filtration
T2 construct: expressed in transfected cells; host or cells: Chinese hamster ovary LR73 cells (LR73-1b), plasma membrane fraction
Excerpt: (§2) The two murine proteins share 84% amino acid identity, although the linker region which contains several sites for phosphorylation by protein kinase C (PKC) is the least conserved region between the two isoforms (Devault and Gros, 1990). […] P-gp1a is expressed at high levels in the intestine, liver and testis, and also in the lung and brain where it is thought to contribute to the blood-brain barrier (Schinkel et al, 1994). In contrast, P-gp1b is expressed in tissues associated with steroid biosynthesis and distribution, such as the adrenal gland and ovary, and is induced specifically in the uterus during pregnancy (Arceci et al, 1988; Trezise et al, 1992). The steroid hormone progesterone increases during pregnancy, and the mdr1b gene, but not the mdr1a gene, is regulated by a progesterone response element in its promoter (Piekarz et al, 1993). Direct evidence that the P-gp1b isoform can transport steroids comes from the observation that disruption of the mdr1b gene in mouse adrenal cells is associated with decreased adrenocorticotropic hormone-stimulated steroid secre- tion (Altuvia et al, 1993). […] More specifically, progesterone inhibits vinblastine binding and azidopine photolabelling of both of the mouse P-gp isoforms in vitro (Yang et al, 1990), showing that both isoforms are capable of interacting with steroids. However, if the distinct tissue-specific patterns of expression of P-gp1a and P-gp1b reflect differences in function related to steroid transport, it is important to show directly that the two proteins are functionally distinct. […] Summary The gene encoding the multidrug resistance P-glycoprotein (P-gp) is duplicated in rodent species and the functional basis for this remains unresolved. […] In the present study possible biochemical differences between the isoforms were directly investigated at the level of drug interaction. […]

P-gp1a [5] = biological target: T1, P-gp1a; assay: Association kinetics of [3H]vinblastine binding to LR73-1a membranes
Excerpt: as §2

P-gp1b [6] = biological target: T2, P-gp1b; assay: Association kinetics of [3H]vinblastine binding to LR73-1b membranes
Excerpt: as §2

[7] = [3H]vinblastine binding to LR73 membranes that do not express P-gp; parameters: species or system Chinese hamster; conditions: data not shown
Excerpt: as §1

P-gp1a [8] = biological target: T1, P-gp1a; assay: Displacement of equilibrium [3H]vinblastine binding, LR73-1a membranes
Excerpt: as §1

P-gp1b [9] = biological target: T2, P-gp1b; assay: Displacement of equilibrium [3H]vinblastine binding, LR73-1b membranes
Excerpt: as §1

[10] = test system: drug-sensitive cells (LR73); assay: Vinblastine sensitivity of drug-sensitive cells in culture; assay type: cell-based, Chinese hamster; conditions: Cricetulus griseus
Excerpt: as §1

[11] = test system: Drug-resistant lines (LR73-1a, LR73-1b); assay: Maximal vinblastine resistance level of drug-resistant lines in culture; assay type: cell-based, Chinese hamster; conditions: Cricetulus griseus, read-out: EC50, maximal resistance level of the cells
Excerpt: as §1

T2 sequence (P06795 whole entry): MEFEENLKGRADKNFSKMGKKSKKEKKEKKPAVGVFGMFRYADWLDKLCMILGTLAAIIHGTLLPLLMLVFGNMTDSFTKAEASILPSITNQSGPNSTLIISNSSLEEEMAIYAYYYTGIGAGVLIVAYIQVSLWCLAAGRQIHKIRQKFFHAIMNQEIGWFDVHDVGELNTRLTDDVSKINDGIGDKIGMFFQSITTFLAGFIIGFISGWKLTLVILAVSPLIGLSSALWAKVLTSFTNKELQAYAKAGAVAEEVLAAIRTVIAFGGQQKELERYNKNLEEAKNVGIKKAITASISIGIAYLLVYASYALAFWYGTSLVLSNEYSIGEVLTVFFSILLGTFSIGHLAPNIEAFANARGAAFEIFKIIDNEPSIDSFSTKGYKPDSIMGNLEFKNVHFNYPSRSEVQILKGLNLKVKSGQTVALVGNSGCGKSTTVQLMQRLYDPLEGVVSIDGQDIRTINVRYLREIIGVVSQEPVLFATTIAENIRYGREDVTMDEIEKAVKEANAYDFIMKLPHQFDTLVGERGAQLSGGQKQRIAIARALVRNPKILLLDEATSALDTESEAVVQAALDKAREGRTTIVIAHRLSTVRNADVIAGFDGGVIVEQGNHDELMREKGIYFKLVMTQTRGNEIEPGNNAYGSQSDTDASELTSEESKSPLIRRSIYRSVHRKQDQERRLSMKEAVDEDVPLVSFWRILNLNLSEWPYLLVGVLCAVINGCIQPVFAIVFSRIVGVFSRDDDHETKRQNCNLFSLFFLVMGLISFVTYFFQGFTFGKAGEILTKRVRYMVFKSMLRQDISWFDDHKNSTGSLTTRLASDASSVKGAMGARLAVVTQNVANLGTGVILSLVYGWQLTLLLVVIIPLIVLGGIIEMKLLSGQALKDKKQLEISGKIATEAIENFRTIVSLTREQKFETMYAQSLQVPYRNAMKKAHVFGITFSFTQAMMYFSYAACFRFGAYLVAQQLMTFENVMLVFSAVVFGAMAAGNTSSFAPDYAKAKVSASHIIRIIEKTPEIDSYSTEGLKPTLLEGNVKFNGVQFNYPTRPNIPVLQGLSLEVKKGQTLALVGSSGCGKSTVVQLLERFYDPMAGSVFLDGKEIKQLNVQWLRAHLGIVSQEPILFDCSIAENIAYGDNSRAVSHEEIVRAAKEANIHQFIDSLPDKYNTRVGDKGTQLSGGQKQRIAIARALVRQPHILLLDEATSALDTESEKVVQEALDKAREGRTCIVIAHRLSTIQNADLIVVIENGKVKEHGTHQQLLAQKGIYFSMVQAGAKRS
T1 sequence (P21447 whole entry): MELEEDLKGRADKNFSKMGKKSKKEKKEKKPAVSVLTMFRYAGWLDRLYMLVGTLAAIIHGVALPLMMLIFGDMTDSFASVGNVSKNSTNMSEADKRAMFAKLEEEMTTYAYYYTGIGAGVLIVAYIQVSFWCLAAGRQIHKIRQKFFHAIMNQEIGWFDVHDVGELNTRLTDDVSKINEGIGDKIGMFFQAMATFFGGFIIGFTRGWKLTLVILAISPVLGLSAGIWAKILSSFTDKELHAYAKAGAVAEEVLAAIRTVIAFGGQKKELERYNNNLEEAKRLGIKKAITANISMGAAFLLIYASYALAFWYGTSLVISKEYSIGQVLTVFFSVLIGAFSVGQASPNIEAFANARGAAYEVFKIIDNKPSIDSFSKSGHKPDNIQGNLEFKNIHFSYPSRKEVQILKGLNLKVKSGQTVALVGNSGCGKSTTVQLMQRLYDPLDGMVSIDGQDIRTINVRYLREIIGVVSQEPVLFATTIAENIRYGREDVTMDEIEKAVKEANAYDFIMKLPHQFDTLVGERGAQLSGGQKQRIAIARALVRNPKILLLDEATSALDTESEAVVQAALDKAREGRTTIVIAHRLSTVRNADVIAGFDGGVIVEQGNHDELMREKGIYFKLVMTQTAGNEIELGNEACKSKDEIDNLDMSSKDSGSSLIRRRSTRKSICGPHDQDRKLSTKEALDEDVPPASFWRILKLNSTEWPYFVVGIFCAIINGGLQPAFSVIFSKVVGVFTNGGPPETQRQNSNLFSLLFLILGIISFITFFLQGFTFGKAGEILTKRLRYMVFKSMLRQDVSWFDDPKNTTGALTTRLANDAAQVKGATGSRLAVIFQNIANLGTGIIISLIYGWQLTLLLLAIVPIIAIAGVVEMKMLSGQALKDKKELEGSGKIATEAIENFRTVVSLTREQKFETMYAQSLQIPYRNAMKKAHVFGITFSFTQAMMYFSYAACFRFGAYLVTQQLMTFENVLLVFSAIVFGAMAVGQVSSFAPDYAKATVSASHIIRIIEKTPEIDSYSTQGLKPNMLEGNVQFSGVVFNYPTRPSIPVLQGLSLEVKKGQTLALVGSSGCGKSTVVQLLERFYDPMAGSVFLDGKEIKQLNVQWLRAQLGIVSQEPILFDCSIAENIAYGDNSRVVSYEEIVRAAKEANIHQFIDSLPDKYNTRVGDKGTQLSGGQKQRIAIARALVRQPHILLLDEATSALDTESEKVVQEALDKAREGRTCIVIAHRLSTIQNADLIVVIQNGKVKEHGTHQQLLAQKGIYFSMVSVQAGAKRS

With `C[S+](C)[O-]` [DMSO, dimethylsulphoxide] the “EC50 on [3H]vinblastine binding” value (P-gp [1]) was 2.5 % (v/v).
For `CC(=O)[C@H]1CC[C@H]2[C@@H]3CCC4=CC(=O)CC[C@]4(C)[C@H]3CC[C@]12C` [[3H]progesterone], the “binding characteristics to P-gp” value (P-gp [2]) was “poor affinity, low specific binding”.
In the case of `CC[C@]1(O)C[C@@H]2CN(CCc3c([nH]c4ccccc34)[C@@](C(=O)OC)(c3cc4c(cc3OC)N(C)[C@H]3[C@@](O)(C(=O)OC)[C@H](OC(C)=O)[C@]5(CC)C=CCN6CC[C@]43[C@@H]65)C2)C1` [[3H]vinblastine], the Kd (P-gp1a [3]; equilibrium, read-out: Kd, affinity of [3H]vinblastine binding) is reported as 32.9 nM, the “Bmax, density of specific binding sites” value (P-gp1a [3]) is reported as 24.5 2.9 pmol mg-1 and the Bmax (P-gp1b [4]; Figure 2, single representative experiment) is reported as 8.6 1.4 pmol mg-1. The Kd (P-gp1b [4]; LR73-1b membranes, equilibrium, mean s.e.m., read-out: Kd, affinity of [3H]vinblastine binding) was 30.7 nM, the “Bmax, density of specific binding sites” value (P-gp1b [4]; LR73-1b membranes, mean s.e.m.) was 14.1 2.9 pmol mg-1 and the “association rate constant (k+1)” value (P-gp1a [5]; LR73-1a membranes, 15-20 nM [3H]vinblastine) was 0.002 0.0005 min-1 nM-1. For the same compound, the “rate constant of [3H]vinblastine dissociation (k-1)” value (P-gp1a [5]; LR73-1a membranes, derived from Figure 3) was 0.07 0.02 min-1, the Kd (P-gp1a [5]; P-gp1a, read-out: Estimate of dissociation constant (Kd = k-1/k+1) using the kinetic data) was 35 nM and the “association rate constant (k+1)” value (P-gp1b [6]; LR73-1b membranes, 15-20 nM [3H]vinblastine) was 0.002 0.0006 min-1 nM-1. The “rate constant of [3H]vinblastine dissociation (k-1)” value (P-gp1b [6]; LR73-1b membranes, derived from Figure 3) was 0.11 0.02 min-1, the Kd (P-gp1b [6]; P-gp1b, read-out: Estimate of dissociation constant (Kd = k-1/k+1) using the kinetic data) was 55 nM and the specific binding [7] was “did not bind specifically”.
For `CC(=O)[C@H]1CC[C@H]2[C@@H]3CCC4=CC(=O)CC[C@]4(C)[C@H]3CC[C@]12C` [progesterone], the Ki (P-gp1a [8]) was 1900 nM and the Ki (P-gp1b [9]) was 1800 nM.
With `CC[C@]1(O)C[C@@H]2CN(CCc3c([nH]c4ccccc34)[C@@](C(=O)OC)(c3cc4c(cc3OC)N(C)[C@H]3[C@@](O)(C(=O)OC)[C@H](OC(C)=O)[C@]5(CC)C=CCN6CC[C@]43[C@@H]65)C2)C1` [vinblastine sulphate, Vinblastine sulphate] the EC50 [10] was 0.01 µg/mL and the EC50 [11] was 0.2 to 0.25 µg/mL.
